Tests used:
[1] = system: CARTyrin-expressing cells; assay: in vitro efficacy of iC9 safety switch with AP1903 (relative viability, live cells per bead events); format: cell-based, Human
Experimental: FIGS. 2A-2B is a series of graphs depicting results of evaluating the in vitro efficacy of an inducible proapoptotic polypeptide (iC9 safety switch) of the disclosure using the exemplary induction agent AP1903. Cells expressing a CARTyrin of the disclosure were A) thawed and rested overnight or B) activated using ImmunoCult™ Human CD3/CD28/CD2 T cell Activator reagent for 5 days were treated with AP1903 for the indicated length of time and concentrations. All data points were collected in triplicate and relative viability determined by dividing the number of live cells in the treatment group by the average number of live cells in the no treatment group per 1,500 bead events collected. Greater than 80% of the non-activated CARTyrin-expressing cells were eliminated from the culture at 24 hours across all dose levels tested (FIG. 1). There was no observable difference between the 24 hour and 48 hour time point in the non-activated cells. In the activated CARTyrin-expressing cells however, both a dose response as well as temporal response were observed. At 12 hours post AP1903 administration, >65% of the cells were killed by concentrations as low as 1 nM. […] Expression of the CARTyrin is be increased upon activation of the cells, and provided the vector design; the expression of iC9 could also increase. Therefore, an activated cell may express higher levels of iC9 making it more sensitive to AP1903. In many embodiments, the activated cells will be the target if and when employing the safety switch.

[2] = system: Human pan T-cells with piggyBac integrated iC9; assay: iC9 safety switch test, viability by flow cytometry using 7-AAD; format: cell-based; conditions: iC9-containing modified T cells; 24 hours incubation
Source text: Human pan T-cells were nucleofected using an Amaxa 4D nucleofector with one of four piggyBac transposons. Modified T cells receiving the “mock” condition were nucleofected with an empty piggyBac transposon. Modified T cells received either a piggyBac […] containing a therapeutic agent alone (a sequence encoding a CARTyrin) or a piggyBac […] containing an integrated iC9 sequence and a therapeutic agent (a sequence encoding a CARTyrin). To test the iC9 safety switch, each of the four modified T cells were incubated for 24 hours with 0, 0.1 nM, 1 nM, 10 nM, 100 nM or 1000 nM AP1903 (an induction agent for […]). Viability was assessed by flow cytometry using 7-aminoactinomycin D (7-AAD), a fluorescent intercalator, as a marker for cells undergoing apoptosis. Cell viability was assessed at day 12 (see FIG. 2). […] Moreover, cell viability was assessed at day 19 (see FIG. 3). […] A quantification of the aggregated results was performed and is provided in FIG. 4, showing the significant impact of the iC9 safety switch on the percent cell viability as a function of the concentration of the induction agent (AP1903) of the iC9 switch for each modified cell type at either day 12 (FIG. 2 and left graph) or day 19 (FIG. 3 and right graph). […] Furthermore, the iC9 safety switch may be functionally expressed as part of a tricistronic vector.

## CC[C@H](C(=O)N1CCCC[C@H]1C(=O)O[C@H](CCc1ccc(OC)c(OC)c1)c1cccc(OCC(=O)NCCNC(=O)COc2cccc([C@@H](CCc3ccc(OC)c(OC)c3)OC(=O)[C@@H]3CCCCN3C(=O)[C@@H](CC)c3cc(OC)c(OC)c(OC)c3)c2)c1)c1cc(OC)c(OC)c(OC)c1 [AP1903]
[1]; activated CARTyrin-expressing cells, 12 hours post AP1903, concentrations as low as 1 nM
  cells killed: > 65%
[1]; activated cells, 48 hours
  cells killed: > 95%
[1]; non-activated CARTyrin-expressing cells, 24 hours, all dose levels tested
  cells eliminated from the culture: Greater than 80%
[2]
  concentration at which apoptosis is induced (lowest of the study): 0.1 nM

From US11744861B2, “Compositions and methods for selective elimination and replacement of hematopoietic stem cells” (Poseida Therapeutics, Inc., priority 2017, dated 2023)
